Source: patent US5312919A, “Photooxidation products and derivatives thereof of merocyanine-540, their preparation and uses” (priority 1992, dated 1994)
Where two headings read alike, the source gives them in different places.

Tests used:
[1] = tested on: human Burkitt lymphoma Daudi cells; assay: Cytotoxic effects on human Burkitt lymphoma Daudi cells (MTT assay); type: cell-based
Protocol: Human Burkitt Lymphoma Daudi cells (1×10^6 cells/ml) were treated with different concentrations of Merodantoin. After overnight incubation at 37° C., the tumor cells kill was determined by MTT assay.
Human Burkitt Lymphoma Daudi cells (1×10^6 cells/ml) were treated with different concentrations of Merocil. After overnight incubation at 37° C., the tumor cells kill was determined by MTT assay.
(§1) Each cell type (1×10^6 cells/ml; in triplicate) was treated with indicated concentrations of Merocil or Merodantoin. After overnight (20 hr.) or 5 day incubation periods, the cell viability was determined by MTT assay and calculated as a percentage of untreated controls.

[2] = tested on: C-33A (carcinoma cervix, human); assay: Inhibition of cell proliferation, C-33A (MTT assay); type: cell-based; conditions: for inhibition at 1.56 µg/mL: 1.56 μg/ml; for inhibition at 1.56 µg/mL / inhibition at 3.13 µg/mL / inhibition at 6.25 µg/mL / inhibition at 12.5 µg/mL: read-out: % inhibition of cell proliferation; for inhibition at 3.13 µg/mL: 3.13 μg/ml; for inhibition at 6.25 µg/mL: 6.25 μg/ml; for inhibition at 12.5 µg/mL: 12.5 μg/ml; for inhibition at 25 µg/mL: 25.0 μg/ml
Protocol: Preactivated MC 540 is abbreviated as pMC 540. […] 52: 831-38 (1990); and T. Mosmann, J. Immulog. Methods 65: 55-63 (1983).
as §1, with “merocil” for “Merocil”, “merodantoin.” for “Merodantoin.”, “controls. The toxicity in vehicle only (cremophor EL) controls was not detectable at highest dose tested.” for “controls.”

CCCCN1C(=O)C(=O)N(CCCC)C1=S [Merodantoin, N,N'-Dibutyl-2-thio-4,5-imidazolindion]
growth inhibition of cultured Daudi lymphoma cells ([1]; 25 μg/ml): virtually complete growth inhibition | cytotoxicity at 1.56 µg/mL ([1]; Homo sapiens, Daudi, 1.56 μg/ml, overnight, 37° C., read-out: % Cell Kill (means ± S.D.)): 2.75 ± 3.2% | cytotoxicity at 3.13 µg/mL ([1]; Homo sapiens, Daudi, 3.13 μg/ml, overnight, 37° C., read-out: % Cell Kill (means ± S.D.)): 6.25 ± 2.99% | cytotoxicity at 6.25 µg/mL ([1]; Homo sapiens, Daudi, 6.25 μg/ml, overnight, 37° C., read-out: % Cell Kill (means ± S.D.)): 9.75 ± 1.71% | cytotoxicity at 12.5 µg/mL ([1]; Homo sapiens, Daudi, 12.50 μg/ml, overnight, 37° C., read-out: % Cell Kill (means ± S.D.)): 42 ± 8.68% | cytotoxicity at 25 µg/mL ([1]; Homo sapiens, Daudi, 25.00 μg/ml, overnight, 37° C., read-out: % Cell Kill (means ± S.D.)): 100% | inhibition at 1.56 µg/mL ([2]; 20 hr.): 16% | inhibition at 3.13 µg/mL ([2]; 20 hr.): 29% | inhibition at 6.25 µg/mL ([2]; 20 hr.): 36% | inhibition at 12.5 µg/mL ([2]; 20 hr.): 49% | inhibition at 25 µg/mL ([2]; 20 hr.): 56% | inhibition at 1.56 µg/mL ([2]; 120 h, 5 days): 11% | inhibition at 3.13 µg/mL ([2]; 120 h, 5 days): 34% | inhibition at 6.25 µg/mL ([2]; 120 h, 5 days): 86% | inhibition at 12.5 µg/mL ([2]; 120 h, 5 days): 63% | inhibition at 25 µg/mL ([2]; 120 h, 5 days): 91%
